Measured values reported in patent US8377949B2, “Quinazolinedione chymase inhibitors” (Boehringer Ingelheim International GmbH, priority 2007, dated 2013).
Values joined by “and” are separate entries in the source; they are usually repeats but may differ in a detail not shown here. Identical values can stand only once.

Biological target: T1, Chymase (Homo sapiens, UniProt P23946)
T1 sequence (P23946 22-247): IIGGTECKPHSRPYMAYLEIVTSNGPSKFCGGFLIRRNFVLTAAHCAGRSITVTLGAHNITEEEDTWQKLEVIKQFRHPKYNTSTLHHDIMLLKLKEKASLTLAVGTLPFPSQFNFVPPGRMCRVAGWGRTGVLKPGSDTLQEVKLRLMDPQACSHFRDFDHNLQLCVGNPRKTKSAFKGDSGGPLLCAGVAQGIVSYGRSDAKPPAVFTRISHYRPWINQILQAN
Test: In vitro Assay for Inhibition of Chymase
Assay type: biochemical
Conditions: 500 pM chymase, 100 nM rhodamine 110 peptide substrate, 1 hour at 28° C., fluorescence
Experimental: In vitro Assay for Inhibition of Chymase
Chymase assays were performed in a total volume of 15 μL in Corning black opaque 384-well microtiter plates with a non-binding surface (Coming, N.Y.). The assay buffer was comprised of 20 mM Tris HCl pH 8.0, 50 mM NaCl, 0.01% CHAPS. The test compounds were serially diluted 3-fold with neat DMSO in a 96-well polypropylene plate from a 10 mM DMSO stock to give the 10 point dose response curve. 3 μL of the resulting DMSO solution were transferred to a 384-well polypropylene plate in duplicate, and 37 μL of assay buffer was added. Chymase was added to the assay plate in 3 uL of assay buffer followed by 2 uL of the appropriate compound dilution using a PlateMate Plus (Matrix Technologies Corp., Hudson, N.H.). The reaction was initiated by the addition of 10 uL rhodamine 110, bis-(succinoyl-L-alanyl-L-alanyl-L-prolyl-L-phenylalanylamide) (American Peptides, Sunnyvale, Calif.) in assay buffer containing 150 μM tris(2-carboxyethyl)phosphine (TCEP, Pierce Chemical, Rockford, Ill.) using a Multidrop (Thermo Electron Corp., Waltham, Mass.). Final assay concentrations were 500 pM chymase, 100 nM substrate, 100 μM TCEP, and 1% DMSO. The plates were incubated at 28° C. and 80% humidity for 1 hour, at which time the fluorescence was read on a Viewlux 1430 Microplate Imager (Perkin Elmer Life Sciences, Boston, Mass.) with 485 nm excitation, 530 nm emission, and a fluorescein dichroic mirror. The percentage of control values were calculated relative to assay blanks containing complete reaction minus chymase and a 100% control containing assay buffer with 1% DMSO in place of compound. IC50 values were obtained by fitting the data using XLFit4 (IDBS Software).

`Cc1cccc2c1c(Cn1c(=O)n(CC3(C(=O)O)CCCCC3)c(=O)c3ccccc31)cn2C` [1-[1-(1,4-Dimethyl-1H-indol-3-ylmethyl)-2,4-dioxo-1,4-dihydro-2H-quinazolin-3-ylmethyl]-cyclohexanecarboxylic acid] was tested. Which IC50 did it give?
Its IC50 is 3 nM.

Which IC50 does the source give for `CCC(C(=O)O)n1c(=O)c2ccccc2n(Cc2cn(C)c3cccc(C)c23)c1=O` (centres unmarked) [2-[1-(1,4-Dimethyl-1H-indol-3-ylmethyl)-2,4-dioxo-1,4-dihydro-2H-quinazolin-3-yl]-butyric acid] here?
Its IC50 is 4 nM.

`CCCCC(C(=O)O)n1c(=O)c2ccccc2n(Cc2cn(C)c3cccc(C)c23)c1=O` (centres unmarked) [2-[1-(1,4-Dimethyl-1H-indol-3-ylmethyl)-2,4-dioxo-1,4-dihydro-2H-quinazolin-3-yl]-hexanoic acid] was tested. Which IC50 did it give?
The IC50 was 3 nM.

`CCCC(C(=O)O)n1c(=O)c2ccccc2n(Cc2cn(C)c3cccc(C)c23)c1=O` (centres unmarked) [2-[1-(1,4-Dimethyl-1H-indol-3-ylmethyl)-2,4-dioxo-1,4-dihydro-2H-quinazolin-3-yl]-pentanoic acid] was tested. Which IC50 did it give?
The IC50 was 4 nM.

`CCCCC(CC(=O)O)n1c(=O)c2ccccc2n(Cc2cn(C)c3cccc(C)c23)c1=O` (centres unmarked) [3-[1-(1,4-Dimethyl-1H-indol-3-ylmethyl)-2,4-dioxo-1,4-dihydro-2H-quinazolin-3-yl]-heptanoic acid] was tested. Which IC50 did it give?
The IC50 was 4 nM.

For `CCC(CC(=O)O)n1c(=O)c2ccccc2n(Cc2nsc3cc(C)cc(C)c23)c1=O` (centres unmarked) [3-[1-(4,6-Dimethyl-1,2-benzisothiazol-3-ylmethyl)-2,4-dioxo-1,4-dihydro-2H-quinazolin-3-yl]-pentanoic acid], which IC50 is on record?
The IC50 was 2 nM.

With `Cc1cccc2c1c(Cn1c(=O)n(CC(CC(=O)O)c3ccccc3)c(=O)c3ccccc31)cn2C` (centres unmarked) [4-[1-(1,4-Dimethyl-1H-indol-3-ylmethyl)-2,4-dioxo-1,4-dihydro-2H-quinazolin-3-yl]-3-phenyl-butyric acid] as the compound, how does the IC50 read?
Its IC50 is 3 nM.

`CC[C@H](C(=O)O)n1c(=O)c2ccccc2n(Cc2cn(C)c3cccc(C)c23)c1=O` [(R)-2-[1-(1,4-Dimethyl-1H-indol-3-ylmethyl)-2,4-dioxo-1,4-dihydro-2H-quinazolin-3-yl]-butyric acid] was tested. Which IC50 did it give?
Its IC50 is 1.4 nM.

With `CCCC[C@H](C(=O)O)n1c(=O)c2ccccc2n(Cc2cn(C)c3cccc(C)c23)c1=O` [(R)-2-[1-(1,4-Dimethyl-1H-indol-3-ylmethyl)-2,4-dioxo-1,4-dihydro-2H-quinazolin-3-yl]-hexanoic acid] as the compound, how does the IC50 read?
Its IC50 is 3 nM and 0.8 nM.

For `Cc1cccc2c1c(Cn1c(=O)n([C@H](C)C(=O)O)c(=O)c3ccccc31)cn2C` [(R)-2-[1-(1,4-Dimethyl-1H-indol-3-ylmethyl)-2,4-dioxo-1,4-dihydro-2H-quinazolin-3-yl]-propionic acid], which IC50 is on record?
The IC50 was 1.9 nM.

Which IC50 does the source give for `CCCC[C@H](C(=O)O)n1c(=O)c2cc(OC)ccc2n(Cc2cn(C)c3cccc(C)c23)c1=O` [(R)-2-[1-(1,4-Dimethyl-1H-indol-3-ylmethyl)-6-methoxy-2,4-dioxo-1,4-dihydro-2H-quinazolin-3-yl]-hexanoic acid] here?
Its IC50 is 1.6 nM.

With `CCCC[C@H](C(=O)O)n1c(=O)c2ccccc2n(Cc2nsc3cc(C)cc(C)c23)c1=O` [(R)-2-[1-(4,6-Dimethyl-1,2-benzisothiazol-3-ylmethyl)-2,4-dioxo-1,4-dihydro-2H-quinazolin-3-yl]-hexanoic acid] as the compound, how does the IC50 read?
Its IC50 is 3 nM.

`CCC[C@H](C(=O)O)n1c(=O)c2ccccc2n(Cc2cn(C)c3cc(C)cc(C)c23)c1=O` [(R)-2-[2,4-Dioxo-1-(1,4,6-trimethyl-1H-indol-3-ylmethyl)-1,4-dihydro-2H-quinazolin-3-yl]-pentanoic acid] was tested. Which IC50 did it give?
Its IC50 is 0.27 nM.

How did the IC50 turn out when `Cc1cccc2c1c(Cn1c(=O)n([C@H](CC(=O)O)c3ccccc3)c(=O)c3ccccc31)cn2C` [(R)-3-[1-(1,4-Dimethyl-1H-indol-3-ylmethyl)-2,4-dioxo-1,4-dihydro-2H-quinazolin-3-yl]-3-phenyl-propionic acid] was run?
Its IC50 is 1 nM.

For `CC[C@H](CC(=O)O)n1c(=O)c2ccccc2n(Cc2cn(C)c3cccc(C)c23)c1=O` [(R)-3-[1-(1,4-Dimethyl-1H-indol-3-ylmethyl)-2,4-dioxo-1,4-dihydro-2H-quinazolin-3-yl]-pentanoic acid], which IC50 is on record?
Its IC50 is 3.9 nM.

Which IC50 does the source give for `Cc1cccc2c1c(Cn1c(=O)n([C@@H](C(=O)O)c3ccccc3)c(=O)c3ccccc31)cn2C` [(R)-[1-(1,4-Dimethyl-1H-indol-3-ylmethyl)-2,4-dioxo-1,4-dihydro-2H-quinazolin-3-yl]-phenyl-acetic acid] here?
The IC50 was 1 nM.

With `Cc1cc(C)c2c(Cn3c(=O)n([C@@H](C(=O)O)c4ccccc4)c(=O)c4ccccc43)nsc2c1` [(R)-[1-(4,6-Dimethyl-1,2-benzisothiazol-3-ylmethyl)-2,4-dioxo-1,4-dihydro-2H-quinazolin-3-yl]-phenyl-acetic acid] as the compound, how does the IC50 read?
Its IC50 is 1.8 nM.

Which IC50 does the source give for `CC[C@@H](C(=O)O)n1c(=O)c2ccccc2n(Cc2cn(C)c3cccc(C)c23)c1=O` [(S)-2-[1-(1,4-Dimethyl-1H-indol-3-ylmethyl)-2,4-dioxo-1,4-dihydro-2H-quinazolin-3-yl]-butyric acid] here?
The IC50 was 1.7 nM.

For `CCCC[C@@H](C(=O)O)n1c(=O)c2ccccc2n(Cc2cn(C)c3cccc(C)c23)c1=O` [(S)-2-[1-(1,4-Dimethyl-1H-indol-3-ylmethyl)-2,4-dioxo-1,4-dihydro-2H-quinazolin-3-yl]-hexanoic acid], which IC50 is on record?
Its IC50 is 2 nM.

`CCC[C@@H](C(=O)O)n1c(=O)c2ccccc2n(Cc2cn(C)c3cccc(C)c23)c1=O` [(S)-2-[1-(1,4-Dimethyl-1H-indol-3-ylmethyl)-2,4-dioxo-1,4-dihydro-2H-quinazolin-3-yl]-pentanoic acid] was tested. Which IC50 did it give?
The IC50 was 1.5 nM.

`Cc1cccc2c1c(Cn1c(=O)n([C@@H](C)C(=O)O)c(=O)c3ccccc31)cn2C` [(S)-2-[1-(1,4-Dimethyl-1H-indol-3-ylmethyl)-2,4-dioxo-1,4-dihydro-2H-quinazolin-3-yl]-propionic acid] was tested. Which IC50 did it give?
The IC50 was 2.5 nM.

For `CCCC[C@@H](C(=O)O)n1c(=O)c2cc(OC)ccc2n(Cc2cn(C)c3cccc(C)c23)c1=O` [(S)-2-[1-(1,4-Dimethyl-1H-indol-3-ylmethyl)-6-methoxy-2,4-dioxo-1,4-dihydro-2H-quinazolin-3-yl]-hexanoic acid], which IC50 is on record?
The IC50 was 2.6 nM.

Which IC50 does the source give for `CCCC[C@@H](C(=O)O)n1c(=O)c2ccc(OC)cc2n(Cc2cn(C)c3cccc(C)c23)c1=O` [(S)-2-[1-(1,4-Dimethyl-1H-indol-3-ylmethyl)-7-methoxy-2,4-dioxo-1,4-dihydro-2H-quinazolin-3-yl]-hexanoic acid] here?
The IC50 was 4.9 nM.

Which IC50 does the source give for `CCCC[C@@H](C(=O)O)n1c(=O)c2cc(OC)ccc2n(Cc2nsc3cc(C)cc(C)c23)c1=O` [(S)-2-[1-(4,6-Dimethyl-1,2-benzisothiazol-3-ylmethyl)-6-methoxy-2,4-dioxo-1,4-dihydro-2H-quinazolin-3-yl]-hexanoic acid] here?
The IC50 was 1.8 nM.

Which IC50 does the source give for `CC[C@@H](CC(=O)O)n1c(=O)c2ccccc2n(Cc2cn(C)c3cccc(C)c23)c1=O` [(S)-3-[1-(1,4-Dimethyl-1H-indol-3-ylmethyl)-2,4-dioxo-1,4-dihydro-2H-quinazolin-3-yl]-pentanoic acid] here?
The IC50 was 3.2 nM.

How did the IC50 turn out when `CC[C@@H](CC(=O)O)n1c(=O)c2ccccc2n(Cc2nsc3cc(C)cc(C)c23)c1=O` [(S)-3-[1-(4,6-Dimethyl-benzo[d]isothiazol-3-ylmethyl)-2,4-dioxo-1,4-dihydro-2H-quinazolin-3-yl]-pentanoic acid] was run?
The IC50 was 3.7 nM.
